This test concerns STAT5 Y694 phosphorylation. The test can be described thus: HTRF experiment: STAT5 Y694 phosphorylation in Hela cells. In kind it is cell-based, Human. The conditions noted are these: 10 μM compound, 2 h pretreatment, interferon stimulation 30 min. Here is the method: A multifunctional microplate reader (TECAN; […] F PLEX); 96-well cell culture plates (Bioyong), HTRF 384-well low volume plates (Cisbio; Cat #66PL384025); Human interferon 0 (IFN-0) (GenScript; Cat #P01574), STAT5 phospho-Y694 kits (Cisbio; Cat #64AT5PEG).
Hela cells (American Type Culture Collection (ATCC), CCL-2) were cultured in a 96-well plate with DMEM containing 5% fetal bovine serum at a density of 3×10^4 cells/well. The cells were incubated overnight in a 37° C., 5% carbon dioxide humidified incubator. The next day, the original DMEM in the 96-well plate was blotted, and equal volumes of medium containing different concentrations of compounds (stock solutions of compounds prepared with dimethyl sulfoxide were diluted to desired concentrations in medium) were added for 2 h of pretreatment. The plate was left to stand in a 37° C. incubator. Human interferon 0 was then added to a final concentration of 10 nM for stimulation. The plate was gently shaken so the contents were well mixed, and the plate was then left to stand in a 37° C. incubator for 30 min.
The medium was removed, and the plate was washed once with an appropriate volume of PBS and then blotted dry. Then 1×lysis buffer was added at 40 μL/well, and the plate was left to stand at room temperature for 30 min (preparation of 1 mL of 1× lysis buffer: mixing well 740 μL of ddH2O with 250 μL of 4× lysis buffer and […]). After 30 min, the cells were repeatedly pipetted until the lysis buffer was not viscous (bubbles were avoided) so that sufficient lysis was achieved.
In an HTRF 384-well low volume plate, 4 μL of an antibody premix (containing two antibodies: Cryptate and d2: the two antibodies were each 20-fold diluted with detection buffer and were then mixed in equal volume to form the antibody premix) and 16 μL of the cell lysate were added to each well. The plate was sealed with a sealing membrane and then incubated overnight at room temperature in a dark place.
After the overnight incubation, signals at 665 nm and 620 nm were detected separately on a multifunctional microplate reader. The calculation formula for the STAT5 Y694 phosphorylation assay is: Ratio=[(signal 665 nm)/(signal 620 nm)]×10^4. A dimethyl sulfoxide-only treatment group was set as a negative control (RatioNegative), and an interferon 0 stimulation group without compound addition was set as a positive control (RatioPositive). The inhibition rates of different samples against STAT5 Y694 phosphorylation were normalized: inhibition rate=[1−(RatioExperiment−RatioNegative)/(RatioPositive−RatioNegative)]×100.

On to `O=C(Cc1ccc2ncccc2c1)N1CCC(n2c(=O)[nH]c3cccc(C(F)(F)F)c32)CC1` [GEN1-117, 1-(1-(2-(Quinolin-6-yl)acetyl)piperidin-4-yl)-7-(trifluoromethyl)-1H-benzo[d]imidazol-2(3H)-one], for which the “Inhibition rate @10 μM” value came out at 89.31%.
